According to US11286255B2, “Pyridone carboxylic acid derivative or salt thereof” (WAKUNAGA PHARMACEUTICAL CO., LTD., priority 2017, dated 2022):

Key:
[1] = test system: NCI-H460 (human non-small cell lung cancer cell line); test: In vitro cell growth inhibition test against NCI-H460; assay type: cell-based; details: 72 h, NCI-H460 cells, 3 days culture, WST-8 (Cell Counting Kit-8), 50% growth inhibition concentration
Experimental: Test Example 1: In Vitro Cell Growth Inhibition Test Against NCI-H460 (Human Non-Small Cell Lung Cancer Cell Line)
An NCI-H460 cell suspension was inoculated at 4×10^3 cells/100 μL/well (0.1 mL) to a 96-well flat-bottomed multiplate using RPMI-1640 (Sigma-Aldrich Co. LLC, R8758) medium containing 10% […] (fetal bovine serum, Thermo Fisher Scientific Inc.), and cultured at 37° C. for 1 day in an incubator containing 5% carbon dioxide. The compound of the present invention was dissolved at a concentration of 1 mM in dimethyl sulfoxide and further diluted into 5.00, 2.50, 1.25, 0.63, 0.31, 0.16, 0.078, and 0.039 μM (final concentrations) using dimethyl sulfoxide and RPMI-1640 medium. Each of these dilutions was added at 0.1 mL/well to the culture plate of the NCI-H460 cells mentioned above after removal of the medium, and the cells were cultured at 37° C. for 3 days in an incubator containing 5% carbon dioxide.
After the culture, Cell Counting Kit-8 (Dojindo Laboratories), which adopts WST-8 [2-(2-methoxy-4-nitrophenyl)-3-(4-nitrophenyl)-5-(2,4-disulfophenyl)-2H-tetrazolium monosodium salt] as a chromogenic substrate, was added at 10 μL/well, and the cells were cultured under the same conditions as above for 1 hour, followed by measurement of absorbance at 450 nm. A cell survival rate was calculated in terms of 50% growth inhibition concentration (IC50 (μM)) by the least square method with that of a control group defined as 100%.

[2] = test system: relapsed/refractory acute myeloid leukemia; details: overall survival targeting all patients; cited from earlier work

SMILES | IC50 [1] | therapeutic effect in overall survival (primary endpoint) as compared with a placebo group [2]
O=C(O)c1cn(-c2nccs2)c2nc(N3CC(C(=O)NCC4CCCCO4)C3)c(F)cc2c1=O (centres unmarked) [Example 173, 6-Fluoro-7-{3-[(oxan-2-ylmethyl)carbamoyl]azetidin-1-yl}-4-oxo-1-(1,3-thiazol-2-yl)-1,4-dihydro-1,8-naphthyridine-3-carboxylic acid] | 260 nM | –
CC(=O)C1CN(c2cc(C)c3c(=O)c(C(=O)O)cn(-c4nccs4)c3n2)C1 [Example 020, 7-(3-Acetylazetidin-1-yl)-5-methyl-4-oxo-1-(1,3-thiazol-2-yl)-1,4-dihydro-1,8-naphthyridine-3-carboxylic acid] | 340 nM | –
CCCn1nc(NC(=O)C2CN(c3nc4c(c(C)c3F)c(=O)c(C(=O)O)cn4-c3ncns3)C2)cc1C [Example 218, 6-Fluoro-5-methyl-7-{3-[(5-methyl-1-propyl-1H-pyrazol-3-yl)carbamoyl]azetidin-1-yl}-4-oxo-1-(1,2,4-thiadiazol-5-yl)-1,4-dihydro-1,8-naphthyridine-3-carboxylic acid] | 260 nM | –
O=C(O)c1cn(-c2nccs2)c2nc(N3CC(C(=O)Nc4ccccn4)C3)c(F)cc2c1=O [Example 083, 6-Fluoro-4-oxo-7-{3-[(pyridin-2-yl)carbamoyl]azetidin-1-yl}-1-(1,3-thiazol-2-yl)-1,4-dihydro-1,8-naphthyridine-3-carboxylic acid] | 190 nM | –
COCC(COC)NC(=O)C1CN(c2cc(C)c3c(=O)c(C(=O)O)cn(-c4nccs4)c3n2)C1 [Example 243, 7-{3-[(1,3-Dimethoxypropan-2-yl)carbamoyl]azetidin-1-yl}-5-methyl-4-oxo-1-(1,3-thiazol-2-yl)-1,4-dihydro-1,8-naphthyridine-3-carboxylic acid] | 220 nM | –
CNOC1CN(c2cc(C)c3c(=O)c(C(=O)O)cn(-c4ncns4)c3n2)C1 [Example 553, 5-methyl-7-{3-[(methylamino)oxy]azetidin-1-yl}-4-oxo-1-(1,2,4-thiadiazol-5-yl)-1,4-dihydro-1,8-naphthyridine-3-carboxylic acid] | 380 nM | –
O=C(O)c1cn(-c2nccs2)c2nc(N3CC(CNc4ccccn4)C3)c(F)cc2c1=O [Example 561, 6-Fluoro-4-oxo-7-(3-{[(pyridin-2-yl)amino]methyl}azetidin-1-yl)-1-(1,3-thiazol-2-yl)-1,4-dihydro-1,8-naphthyridine-3-carboxylic acid] | 900 nM | –
Cc1cc(N2CC(c3ccon3)C2)nc2c1c(=O)c(C(=O)O)cn2-c1ncns1 [Example 499, 5-Methyl-7-[3-(1,2-oxazol-3-yl)azetidin-1-yl]-4-oxo-1-(1,2,4-thiadiazol-5-yl)-1,4-dihydro-1,8-naphthyridine-3-carboxylic acid] | 200 nM | –
CNC1CN(c2ccc3c(=O)c(C(=O)O)cn(-c4nccs4)c3n2)CC1OC (centres unmarked) [the compound, 1,4-dihydro-7-(3-methoxy-4-methylamino-1-pyrrolidinyl)-4-oxo-1-(2-thiazolyl)-1,8-naphthyridine-3-carboxylic acid, reference compound] | – | does not exhibit a significant therapeutic effect
Cc1c(F)c(N2CC(n3cccn3)C2)nc2c1c(=O)c(C(=O)O)cn2-c1nccs1 [Example 487, 6-Fluoro-5-methyl-4-oxo-7-[3-(1H-pyrazol-1-yl)azetidin-1-yl]-1-(1,3-thiazol-2-yl)-1,4-dihydro-1,8-naphthyridine-3-carboxylic acid] | 160 nM | –
Cc1ccc(C(=O)NC2CN(c3cc(C)c4c(=O)c(C(=O)O)cn(-c5ncns5)c4n3)C2)nc1 [Example 584, 5-Methyl-7-[3-(5-methylpyridine-2-amido)azetidin-1-yl]-4-oxo-1-(1,2,4-thiadiazol-5-yl)-1,4-dihydro-1,8-naphthyridine-3-carboxylic acid] | 210 nM | –
Cc1cnc(C2CN(c3cc(C)c4c(=O)c(C(=O)O)cn(-c5ncns5)c4n3)C2)o1 [Example 489, 5-Methyl-7-[3-(5-methyl-1,3-oxazol-2-yl)azetidin-1-yl]-4-oxo-1-(1,2,4-thiadiazol-5-yl)-1,4-dihydro-1,8-naphthyridine-3-carboxylic acid] | 260 nM | –
Cc1ccc(C(=O)NC2CN(c3nc4c(cc3F)c(=O)c(C(=O)O)cn4-c3nccs3)C2)nc1 [Example 586, 6-Fluoro-7-[3-(5-methylpyridine-2-amido)azetidin-1-yl]-4-oxo-1-(1,3-thiazol-2-yl)-1,4-dihydro-1,8-naphthyridine-3-carboxylic acid] | 410 nM | –
CCOCCNC(=O)C1CN(c2cc(C)c3c(=O)c(C(=O)O)cn(-c4nc(-c5cccnc5)cs4)c3n2)C1 [Example 414, 7-{3-[(2-Ethoxyethyl)carbamoyl]azetidin-1-yl}-5-methyl-4-oxo-1-[4-(pyridin-3-yl)-1,3-thiazol-2-yl]-1,4-dihydro-1,8-naphthyridine-3-carboxylic acid] | 400 nM | –
CCONC1CN(c2cc(C)c3c(=O)c(C(=O)O)cn(-c4ncns4)c3n2)C1 [Example 541, 7-[3-(Ethoxyamino)azetidin-1-yl]-5-methyl-4-oxo-1-(1,2,4-thiadiazol-5-yl)-1,4-dihydro-1,8-naphthyridine-3-carboxylic acid] | 390 nM | –
CCOCC(COCC)NC(=O)C1CN(c2cc(C)c3c(=O)c(C(=O)O)cn(-c4nccs4)c3n2)C1 [Example 006, 7-{3-[(1,3-Diethoxypropan-2-yl)carbamoyl]azetidin-1-yl}-5-methyl-4-oxo-1-(1,3-thiazol-2-yl)-1,4-dihydro-1,8-naphthyridine-3-carboxylic acid] | 110 nM | –
O=C(O)c1cn(-c2ncns2)c2nc(N3CC(NOCc4ccccc4)C3)c(F)cc2c1=O [Example 549, 7-{3-[(Benzyloxy)amino]azetidin-1-yl}-6-fluoro-4-oxo-1-(1,2,4-thiadiazol-5-yl)-1,4-dihydro-1,8-naphthyridine-3-carboxylic acid] | 190 nM | –
